In test [1] the test system is Breast cancer subpanel. The test is described as follows: NCI-60 screen, subpanel summary. The class given is cell-based, human. An excerpt: (§1) (Table 5). Moreover, the ratio of the MG-MID of the full-panel to its individual sub-panels offers the selectivity index.
Test [2] concerns Ovarian cancer subpanel. In words: NCI-60 screen, subpanel summary. The class given is cell-based, human.
Source text: as §1

Test [3] deals with T1, VEGFR-2 (Homo sapiens, UniProt P35968).
T1 construct: purchased
T1 sequence (P35968 20-1356): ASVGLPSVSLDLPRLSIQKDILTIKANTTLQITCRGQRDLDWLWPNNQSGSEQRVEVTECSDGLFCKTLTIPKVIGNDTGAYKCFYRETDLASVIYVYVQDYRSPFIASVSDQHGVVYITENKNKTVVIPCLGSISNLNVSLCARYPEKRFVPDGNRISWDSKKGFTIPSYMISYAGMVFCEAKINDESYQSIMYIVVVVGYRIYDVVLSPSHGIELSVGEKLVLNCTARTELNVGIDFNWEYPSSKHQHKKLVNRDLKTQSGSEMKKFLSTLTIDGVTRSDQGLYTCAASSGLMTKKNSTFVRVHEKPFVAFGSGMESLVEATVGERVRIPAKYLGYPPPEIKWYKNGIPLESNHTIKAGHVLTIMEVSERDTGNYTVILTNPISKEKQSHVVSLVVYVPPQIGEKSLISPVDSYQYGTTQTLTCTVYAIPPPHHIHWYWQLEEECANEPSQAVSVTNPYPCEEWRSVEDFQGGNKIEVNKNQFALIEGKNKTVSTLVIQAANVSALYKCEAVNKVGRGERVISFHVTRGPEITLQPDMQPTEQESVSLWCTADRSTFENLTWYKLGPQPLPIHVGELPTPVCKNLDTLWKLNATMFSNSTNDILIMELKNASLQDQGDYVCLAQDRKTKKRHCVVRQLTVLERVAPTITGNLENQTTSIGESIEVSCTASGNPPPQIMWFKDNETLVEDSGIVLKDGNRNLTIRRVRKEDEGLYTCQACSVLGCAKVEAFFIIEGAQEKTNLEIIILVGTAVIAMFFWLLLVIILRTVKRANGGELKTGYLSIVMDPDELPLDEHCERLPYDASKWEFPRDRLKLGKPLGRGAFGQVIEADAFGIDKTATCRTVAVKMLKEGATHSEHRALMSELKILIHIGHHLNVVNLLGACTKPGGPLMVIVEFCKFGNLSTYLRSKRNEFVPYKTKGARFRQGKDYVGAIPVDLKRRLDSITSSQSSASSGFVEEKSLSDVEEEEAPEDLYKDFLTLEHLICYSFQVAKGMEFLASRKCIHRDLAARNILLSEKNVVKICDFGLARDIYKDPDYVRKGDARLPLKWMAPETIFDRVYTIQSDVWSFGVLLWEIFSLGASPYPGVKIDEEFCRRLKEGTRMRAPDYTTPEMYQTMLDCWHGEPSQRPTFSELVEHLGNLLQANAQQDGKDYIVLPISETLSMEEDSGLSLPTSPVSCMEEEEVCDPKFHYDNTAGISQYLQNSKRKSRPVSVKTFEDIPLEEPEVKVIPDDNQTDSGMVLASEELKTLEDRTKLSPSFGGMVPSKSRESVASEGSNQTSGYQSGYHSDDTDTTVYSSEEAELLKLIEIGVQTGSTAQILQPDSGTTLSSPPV
In words: VEGFR-2/KDR ELISA kit kinase assay. The format is biochemical. The procedure: The inhibition percentages of the target compound 5l at a concentration of 10 µM were assessed using DMSO as a solvent against ten kinases, namely PTK2B, JAK1, CDK2, FGFR1, IGF1R, VEGFR-2, PDGFRα, PDGFRβ, FLT3, and Src. The Z’-LYTE® technology, which relies on FRET (Fluorescence Resonance Energy Transfer) from Invitrogen/Life Technologies, was employed for this evaluation for all kinases except VEGFR-2. The VEGFR-2 kinase assay was conducted in a 96-well streptavidin-coated plate using a recombinant human VEGFR-2/KDR ELISA kit, following the manufacturer’s instructions. […] Statistical significance was assessed using one-way analysis of variance (ANOVA), followed by the Dunnett test; data are represented as means ± SD.
(In general: ELISA stands for enzyme-linked immunosorbent assay.)

Broadly, the GI50 is the concentration giving 50% growth inhibition. For orientation: inhibition means the drop in the measured response relative to a control, in per cent. Read a low inhibition as a response near the control. For the molecule `O=C1Nc2cc(Cl)ccc2C1=Cc1ccc(OCc2cccnc2)cc1` (mixture of isomers) [Compound 5l, (E/Z)-6-Chloro-3-[4-(pyridin-3-ylmethoxy)benzylidene] indolin-2-one], the GI50 in test [1] (Homo sapiens, five-dose, Breast cancer subpanel, read-out: MG-MID (GI50)) came out at 8.14 µM; in test [2] (Homo sapiens, five-dose, Ovarian cancer subpanel, read-out: MG-MID (GI50)), 29.4 µM. Further, the “Selectivity Index” value in test [1] (ratio of full-panel MG-MID to Breast cancer subpanel MG-MID) turned out to be 1.50; in test [2] (ratio of full-panel MG-MID to Ovarian cancer subpanel MG-MID), 0.42. Further, the inhibition at 10 µM in test [3] was 38.5%.

(Values after publication PMC11124822, “Discovery and Anticancer Screening of Novel Oxindole-Based Derivative Bearing Pyridyl Group as Potent and Selective Dual FLT3/CDK2 Kinase Inhibitor” (Pharmaceuticals, 2024).)
